Laboratory results taken from the supplement of paper PMC10307832.

How the values were obtained:
Assay in all cases: relative viability (nuclei count vs DMSO), 5 days (fraction); higher = more cells survive
H3255 = system: H3255
Procedure, shortened: (§1)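 Relative viability is defined as nuclei in treated wells over nuclei in vehicle wells. Duplicate plates were run and medians reported. Lung cancer cell lines in 1536-well plates were dosed by pin tool one day after seeding, with one drug or with a fixed anchor-drug dose plus five library-drug doses (not always all listed) in √10 steps, and nuclei were counted after 5 days.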

SW 1573 = system: SW 1573
Procedure, shortened: as §1

NCI-H1437 = system: NCI-H1437
Procedure, shortened: as §1

LU99A = system: LU99A
Procedure, shortened: as §1

201T = system: 201T
Procedure, shortened: as §1

LCLC-97TM1 = system: LCLC-97TM1
Procedure, shortened: as §1

PC-3 [JPC-3] = system: PC-3 [JPC-3]
Procedure, shortened: as §1

NCI-H647 = system: NCI-H647
Procedure, shortened: as §1

EPLC-272H = system: EPLC-272H
Procedure, shortened: as §1

NCI-H2087 = system: NCI-H2087
Procedure, shortened: as §1

NCI-H2342 = system: NCI-H2342
Procedure, shortened: as §1

NCI-H358 = system: NCI-H358
Procedure, shortened: as §1

HOP-62 = system: HOP-62
Procedure, shortened: as §1

HCC-827 = system: HCC-827
Procedure, shortened: as §1

NCI-H1666 = system: NCI-H1666
Procedure, shortened: as §1

BEN = system: BEN
Procedure, shortened: as §1

COR-L 105 = system: COR-L 105
Procedure, shortened: as §1

NCI-H1395 = system: NCI-H1395
Procedure, shortened: as §1

LOU-NH91 = system: LOU-NH91
Procedure, shortened: as §1

EKVX = system: EKVX
Procedure, shortened: as §1

NCI-H2085 = system: NCI-H2085
Procedure, shortened: as §1

NCI-H1975 = system: NCI-H1975
Procedure, shortened: as §1

NC(=O)Nc1cc(-c2cccc(F)c2)sc1C(=O)N[C@H]1CCCNC1 [AZD7762] + Cc1nc(Nc2ncc(C(=O)Nc3c(C)cccc3Cl)s2)cc(N2CCN(CCO)CC2)n1 [Dasatinib] (partner 0.075 µM)
relative viability (H3255; first compound 0.01 µM): 0.347
relative viability (H3255; first compound 0.03162 µM): 0.307
relative viability (H3255; first compound 0.1 µM): 0.44
relative viability (H3255; first compound 0.3162 µM): 0.352
relative viability (H3255; first compound 1 µM): 0.319
relative viability (SW 1573; first compound 0.01 µM): 0.576
relative viability (SW 1573; first compound 0.03162 µM): 0.561
relative viability (SW 1573; first compound 0.1 µM): 0.45
relative viability (SW 1573; first compound 0.3162 µM): 0.247
relative viability (SW 1573; first compound 1 µM): 0.121
relative viability (NCI-H1437; first compound 0.01 µM): 0.346
relative viability (NCI-H1437; first compound 0.03162 µM): 0.586
relative viability (NCI-H1437; first compound 0.1 µM): 0.427
relative viability (NCI-H1437; first compound 0.3162 µM): 0.286
relative viability (NCI-H1437; first compound 1 µM): 0.307
relative viability (LU99A; first compound 0.01 µM): 0.551
relative viability (LU99A; first compound 0.03162 µM): 0.573
relative viability (LU99A; first compound 0.1 µM): 0.51
relative viability (LU99A; first compound 0.3162 µM): 0.419
relative viability (LU99A; first compound 1 µM): 0.202
relative viability (201T; first compound 0.01 µM): 0.592
relative viability (201T; first compound 0.03162 µM): 0.584
relative viability (201T; first compound 0.1 µM): 0.602
relative viability (201T; first compound 0.3162 µM): 0.567
relative viability (201T; first compound 1 µM): 0.473
relative viability (LCLC-97TM1; first compound 0.01 µM): 0.913
relative viability (LCLC-97TM1; first compound 0.03162 µM): 0.802
relative viability (LCLC-97TM1; first compound 0.1 µM): 0.778
relative viability (LCLC-97TM1; first compound 0.3162 µM): 0.572
relative viability (LCLC-97TM1; first compound 1 µM): 0.447
relative viability (PC-3 [JPC-3]; first compound 0.01 µM): 1.05
relative viability (PC-3 [JPC-3]; first compound 0.03162 µM): 0.961
relative viability (PC-3 [JPC-3]; first compound 0.1 µM): 0.969
relative viability (PC-3 [JPC-3]; first compound 0.3162 µM): 1.01
relative viability (PC-3 [JPC-3]; first compound 1 µM): 0.716
relative viability (NCI-H647; first compound 0.01 µM): 0.214
relative viability (NCI-H647; first compound 0.03162 µM): 0.184
relative viability (NCI-H647; first compound 0.1 µM): 0.197
relative viability (NCI-H647; first compound 0.3162 µM): 0.143
relative viability (NCI-H647; first compound 1 µM): 0.0925
relative viability (EPLC-272H; first compound 0.01 µM): 0.338
relative viability (EPLC-272H; first compound 0.03162 µM): 0.384
relative viability (EPLC-272H; first compound 0.1 µM): 0.365
relative viability (EPLC-272H; first compound 0.3162 µM): 0.3
relative viability (EPLC-272H; first compound 1 µM): 0.0994
relative viability (NCI-H2087; first compound 0.01 µM): 0.887
relative viability (NCI-H2087; first compound 0.03162 µM): 0.979
relative viability (NCI-H2087; first compound 0.1 µM): 0.919
relative viability (NCI-H2087; first compound 0.3162 µM): 0.773
relative viability (NCI-H2087; first compound 1 µM): 0.517
relative viability (NCI-H2342; first compound 0.01 µM): 0.326
relative viability (NCI-H2342; first compound 0.03162 µM): 0.344
relative viability (NCI-H2342; first compound 0.1 µM): 0.33
relative viability (NCI-H2342; first compound 0.3162 µM): 0.309
relative viability (NCI-H2342; first compound 1 µM): 0.31
relative viability (NCI-H358; first compound 0.01 µM): 0.151
relative viability (NCI-H358; first compound 0.03162 µM): 0.182
relative viability (NCI-H358; first compound 0.1 µM): 0.188
relative viability (NCI-H358; first compound 0.3162 µM): 0.167
relative viability (NCI-H358; first compound 1 µM): 0.17
relative viability (HOP-62; first compound 0.01 µM): 0.727
relative viability (HOP-62; first compound 0.03162 µM): 0.72
relative viability (HOP-62; first compound 0.1 µM): 0.682
relative viability (HOP-62; first compound 0.3162 µM): 0.623
relative viability (HOP-62; first compound 1 µM): 0.341
relative viability (HCC-827; first compound 0.01 µM): 0.418
relative viability (HCC-827; first compound 0.03162 µM): 0.335
relative viability (HCC-827; first compound 0.1 µM): 0.302
relative viability (HCC-827; first compound 0.3162 µM): 0.31
relative viability (HCC-827; first compound 1 µM): 0.186
relative viability (NCI-H1666; first compound 0.01 µM): 0.909
relative viability (NCI-H1666; first compound 0.03162 µM): 0.88
relative viability (NCI-H1666; first compound 0.1 µM): 0.838
relative viability (NCI-H1666; first compound 0.3162 µM): 0.593
relative viability (NCI-H1666; first compound 1 µM): 0.594
relative viability (BEN; first compound 0.01 µM): 0.253
relative viability (BEN; first compound 0.03162 µM): 0.297
relative viability (BEN; first compound 0.1 µM): 0.282
relative viability (BEN; first compound 0.3162 µM): 0.301
relative viability (BEN; first compound 1 µM): 0.328
relative viability (COR-L 105; first compound 0.01 µM): 0.324
relative viability (COR-L 105; first compound 0.03162 µM): 0.342
relative viability (COR-L 105; first compound 0.1 µM): 0.324
relative viability (COR-L 105; first compound 0.3162 µM): 0.251
relative viability (COR-L 105; first compound 1 µM): 0.239
relative viability (NCI-H1395; first compound 0.01 µM): 0.449
relative viability (NCI-H1395; first compound 0.03162 µM): 0.424
relative viability (NCI-H1395; first compound 0.1 µM): 0.427
relative viability (NCI-H1395; first compound 0.3162 µM): 0.371
relative viability (NCI-H1395; first compound 1 µM): 0.302
relative viability (LOU-NH91; first compound 0.01 µM): 0.561
relative viability (LOU-NH91; first compound 0.03162 µM): 0.596
relative viability (LOU-NH91; first compound 0.1 µM): 0.558
relative viability (LOU-NH91; first compound 0.3162 µM): 0.517
relative viability (LOU-NH91; first compound 1 µM): 0.49
relative viability (EKVX; first compound 0.01 µM): 0.623
relative viability (EKVX; first compound 0.03162 µM): 0.615
relative viability (EKVX; first compound 0.1 µM): 0.337
relative viability (EKVX; first compound 0.3162 µM): 0.543
relative viability (EKVX; first compound 1 µM): 0.521
relative viability (NCI-H2085; first compound 0.01 µM): 0.247
relative viability (NCI-H2085; first compound 0.03162 µM): 0.254
relative viability (NCI-H2085; first compound 0.1 µM): 0.243
relative viability (NCI-H2085; first compound 0.3162 µM): 0.201
relative viability (NCI-H2085; first compound 1 µM): 0.216
relative viability (NCI-H1975; first compound 0.01 µM): 0.339
relative viability (NCI-H1975; first compound 0.03162 µM): 0.347
relative viability (NCI-H1975; first compound 0.1 µM): 0.42
relative viability (NCI-H1975; first compound 0.3162 µM): 0.305
relative viability (NCI-H1975; first compound 1 µM): 0.242
